Results published in patent US5639873A, “Oligothionucleotides” (Centre National de la Recherche Scientifique (CNRS), priority 1992, dated 1997).
Entries after “also recorded” stand apart in the source; their conditions may differ.

What was measured:
[1] = tested on: Endonuclease S1; experiment: Enzymatic degradation of hexamers by endonuclease S1; type: in vitro ADME
Source text: (§1) Study of the substrate-type activities of hexamers 4'-SrU6, 4'-SrU6 -3'n-prOH compared with the substrate characteristics of the hexamers βrU6 and αrU6 in relation to various purified nucleases.
Endonuclease S1, specific for the single DNA strand hydrolyzes the phosphodiester bonds in a random manner.
(§2) These four enzymes were obtained from Boehringer Mannheim.
(§3) Generally, one optical density unit at 260 nm of each hexamer is brought into contact with a certain concentration of the enzyme considered and is then diluted in a sufficient quantity for 1000 μl of enzymatic digestion buffer.
(§4) Various digestion buffers were used depending on the nature of the enzyme (Table 9).
(§5) The stock sample is divided into 10 fractions of 100 μl before being frozen at -18° C.
(§6) One aliquot fraction of 100 μl is collected and incubated in a dry oven thermostated at 37° C. for a time t and is then analyzed by analytical HPLC.
(§7) The study of the surface area of the signal corresponding to the hexamer makes it possible to measure a kinetics of degradation whose half-life period is calculated (Table 10).

[2] = tested on: Ribonuclease A; experiment: Enzymatic degradation of hexamers by ribonuclease A; type: in vitro ADME
Protocol: as §1
Ribobuclease A degrades an oligoribonucleotide after the pyrimidine residues.
as §2, §3, §4, §5, §6, §7

[3] = tested on: 5'-exonuclease calf spleen phosphodiesterase; experiment: Enzymatic degradation of hexamers by 5'-exonuclease calf spleen phosphodiesterase; type: in vitro ADME
Source text: as §1
Calf spleen phosphodiesterase (CSP) is a 5'-exonuclease which degrades the oligonucleotides from their 5' end and liberates nucleotides 3'-phosphates.
as §2, §3, §4, §5, §6, §7

[4] = tested on: 3'-exonuclease snake venom phosphodiesterase; type: in vitro ADME
Source text: as §1
Snake venom phosphodiesterase (VSP) is a 3'-exonuclease-3' which liberates nucleotides 5'-phosphate after degrading the oligomer by its 3' end.
as §2, §3, §4, §5, §6, §7

[5] = tested on: polyrA; experiment: Melting of duplexes with polyrA (UV spectrophotometry, melting temperature); type: binding; details: for Tm: Table 7, duplex with poly rA, 3 μM; for thermal stability with complementary RNA (in words): complementary RNA sequences; for Melting temperature (Tm) / hypochromicity: Table 4, 3 μM of each oligomer; for Melting temperature (Tm): 10 mM sodium cacodylate, pH 7
Source text: (§8) UV spectrophotometry makes it possible to study the nucleic acids and to detect the formation of duplex, the melting temperature being one of the characteristics of a duplex. The stacking and pairing of the bases of the nucleic acids are accompanied by a decrease in the UV absorbtion (hypochromicity). […] The point of inflection of the curve, of sygmoidal shape, of the variation of the absorbance as as function of temperature is called melting temperature or Tm and corresponds to the co-existence of separate strands and paired strands in a 50/50 ratio.
(§9) Analysis of the melting curves for the β-4'-thiooligoribonucleotide/β-oligodeoxyribonucleotide and β-4'-thiooligoribonucleotide/β-oligoribonucleotide duplexes will make it possible to define the thermal stability of such duplexes by the measurement of the melting temperature. These hybridization experiments are carried out preserving a 1/1 stoichiometry between the two complementary strands, in the presence of a 1M NaCl, 10 mM sodium cacodylate buffer. A high NaCl concentration indeed favors the pairings by solvating the negative charges around the phosphorus atoms of the two oligonucleotides. We therefore carried out these hybridization experiments in a 0.1M NaCl, 10 mM sodium cacodylate buffer.
(§10) In order to carry out the hybridization experiment, it is necessary to know the concentration of each oligomer in order to preserve the 1:1 stoichiometry between the two complementary strands. According to the BEER-LAMBERT law A=ε1c, the absorbances of the oligomers were measured at 80° C. in order to remove the phenomenon of stacking of the bases creating a disturbance in the hyperchromicity due to the existence of tertiary structures.
(§11) The hybridization experiments were carried out with a UVIKON 810 spectrophotometer (KONTRON), coupled to an IBM-compatible microcomputer. […] The UV cuvettes are made from quartz of 1 cm in length and a continous circulation of nitrogen is used for temperatures of less than 20° C. […] This mixture is heated at 80° C. for 1 hour, and then cooled to -20° C. according to a temperature gradient of 0.5° C. per minute. The absorbance and temperature values are collected every 30 seconds.
(§12) The same experiment is carried out using a sufficient quantity for 1000 μl of 0.1M NaCl, 10 mM sodium cacodylate hybridization buffer adjusted to pH 7 in order to evaluate the thermal stability of the duplex in this buffer which favors the pairings less.
(§13) The hybridization experiments were carried out preserving the 1/1 stoichiometry between the two complementary strands in the presence of a 1M NaCl, 10 mM sodium cacodylate buffer. A high NaCl concentration indeed favors the pairings by solvating the negative charges around the phosphorus atoms of the two oligonucleotides. We carried out these hybridization experiments in another buffer 0.1M NaCl, 10 mM sodium cacodylate.
(§14) In order to carry out the hybridization experiments, it is necessary to know the concentration of each oligomer in order to preserve the 1:1 stoichiometry between the two complementary strands. According to the BEER-LAMBERT law A=ε1c, the absorbances of the oligomers were measured at 80° C. in order to remove the phenomenon of stacking of the bases creating a disturbance in the hyperchromicity due to the existence of tertiary structures.
as §11

[6] = tested on: βdC2 A12 C2 (SEQ ID NO: 4); experiment: Melting of duplexes with βdC2 A12 C2 (UV spectrophotometry, melting temperature); type: binding; details: for Tm: Table 7, duplex with d(C2 A12 C2), 3 μM; for Melting temperature (Tm): 10 mM sodium cacodylate, pH 7
Source text: as §8, §9, §10, §11, §12, §13, §14, §11

[7] = tested on: calf spleen phosphodiesterase; experiment: Enzymatic degradation of the dodecamers by calf spleen phosphodiesterase; type: in vitro ADME; details: for Degradation in 0 min / Degradation in 25 min: Table 8
Source text: Study of the enzymatic degradation of the dodecamer β(SrT)dT11 (SEQ ID NO: 3) by calf spleen phosphodiesterase. Calf spleen phosphodiesterase is an exonuclease which degrades the oligomers from their free 5' ends, thus liberating nucleotides 3' phosphate.
This study will allow us to evaluate the resistance to enzymatic degradation induced by the presence in the 5' position of a 4'-thionucleotide unit in the oligomer β(SrT)dT11 (SEQ ID NO: 3) compared to the enzymatic degradation of the oxygenated natural homolog βdT12 (SEQ ID NO: 3). The comparative stability of the two dodecamers βdT12 (SEQ ID NO: 3) and β(SrT)dT11 (SEQ ID NO: 3) towards hydrolysis by calf spleen phosphodiesterase is presented in Table 8.
The variation over time of the enzymatic degradation of the two dodecamers was monitored by HPLC. We were able to plot the curve for enzymatic digestion of β(SrT)dT11 (SEQ ID NO: 3) as a function of time: A=A0 e^-kt (FIG. 2, A) where:
A0 is the initial surface area of the 12-mer
A is the surface area of the 12-met at the instant t
k is the first order rate constant for the degradation
An oligonucleotide solution (20 μl, 3 absorbance units at 260 nm) is diluted in 0.125M ammmonium acetate buffer (pH 7.0), 2.5 mM EDTA and 0.065% Tween 80 (80 μL). A commercial solution of calf spleen phosphodisesterase (2 μl, final concentration 0.008 unit/ml) is added and the mixture is incubated at 37° C. At determined times, aliquot fractions are collected (5 μl), heated at 100° C. for one minute and analyzed by HPLC.
The analyses were carried out on an PVDI (Polyvinylimidazole SFCC-Shandon) column protected by a precolumn and a prefilter. The elution is carried out based on a linear gradient over 20 minutes from 0.1M to 0.4M KCl in 20 mM KH2 PO4 at pH 6 containing 20% acetonitrile. The flow rate was fixed at 1 ml/min and the UV detection at 260 nm.

[8] = tested on: βSrU12 (SEQ ID NO: 5); experiment: Self-hybridization of the oligomer βSrU12; type: binding; details: 1M and 0.1M NaCl
Protocol: For that, an experiment for self-hybridization of the dodecamer βSrU12 (SEQ ID NO: 5) was carried out at two NaCl concentrations (1M and 0.1M). […] No point of inflection can be visualized on such a straight line.
The hybridization experiments were carried out with a UVIKON 810 spectrophotometer (KONTRON), coupled to an IBM-compatible microcomputer. The temperature is controlled by a HUBER PD 415 temperature programmer connected to a thermostated bath (HUMER […]). The UV cuvettes are made from quartz of 1 cm in length and a continous circulation of nitrogen is used for temperatures of less than 20° C. Before the experiment, 3 μM (Examples 1 to V) or 10 μM (Examples VI and VII) of complementary oligomers are brought into contact in a sufficient quantity for 1000 μl of 1M NaCl and 10 mM sodium cacodylate buffer, adjusted to pH 7 (Examples I to VII). This mixture is heated at 80° C. for 1 hour, and then cooled to -20° C. according to a temperature gradient of 0.5° C. per minute. The absorbance and temperature values are collected every 30 seconds.
as §12
Concentration of βrU12 (SEQ ID NO: 5)=0.351 mM […]

[9] = Table 5, 0.1M NaCl, 3 μM of each oligomer
[10] = Table 5, 1M NaCl, 3 μM of each oligomer
[11] = Table 6, 1M NaCl, 10 μM of each oligomer

Substance: 4'-Sr-(U-U-U-U-U-U) [βSrU6]
- enzymatic resistance compared with βrU6 (in words) ([1]; S1): high enzymatic resistance
- Half-life period ([1]; Table 10, S1 20 units/ml, pH 4.7, 37° C.): 15.5 h
- enzymatic resistance compared with βrU6 (in words) ([2]; RNase-A): high enzymatic resistance
- Half-life period ([2]; Table 10, RNAse A 2 × 10^-2 units/ml, pH 7.4, 37° C.): 11.2 h
- enzymatic resistance compared with βrU6 (in words) ([3]; CSP): high enzymatic resistance
- Half-life period ([3]; Table 10, CSP 13 × 10^-3 units/ml, pH 7, 37° C.): 65 h
- Half-life period ([4]; Table 10, VSP 6 × 10^-4 units/ml, pH 9.4, 37° C.): 1.27 h
- enzymatic resistance compared with βrU6 (in words) ([4]; VSP): high enzymatic resistance

Substance: 4'-SrU3 -dT6 -4'-SrU3 /P3 PS5 P3 (UUUTTTTTTUUU; 4'-thioribouridine units; phosphorothioate bonds) [compound 5, mixed dodecamer containing both phosphodiester and phosphorothioate bonds]
- Tm ([5]; 0.1 M NaCl): 24 °C
- Tm ([5]; 1 M NaCl): 36 °C
- thermal stability with complementary RNA (in words) [5]: good thermal stability
- decrease in the Tm value per phosphorothioate linkage ([5]; with poly rA and d(C2 A12 C2), versus phosphodiester oligomer 4): about 2 °C
- Tm ([6]; 0.1 M NaCl): 3 °C
- Tm ([6]; 1 M NaCl): 19 °C

Substance: 4'-SrU3 -dT6 -4'-SrU3 /P11 (UUUTTTTTTUUU; 4'-thioribouridine units) [compound 4, mixed dodecamer with phosphodiester bonds]
- Tm ([5]; 0.1 M NaCl): 32 °C
- Tm ([5]; 1 M NaCl): 45 °C
- thermal stability with complementary RNA (in words) [5]: good thermal stability
- Tm values compared with those of βrSU12 (in words) ([5]; with poly rA): equivalent
- Tm ([6]; 0.1 M NaCl): 10 °C
- Tm ([6]; 1 M NaCl): 31 °C
- Tm values compared with those of βrSU12 (in words) ([6]; with d(C2 A12 C2)): equivalent

Substance: β(SrT)dT11: dodecamer with a 4'-thionucleotide unit in the 5' position (TTTTTTTTTTTT; 5' 4'-thionucleotide unit)
- first order rate constant for the degradation (k) ([7]; FIG. 2, 37° C., 0.008 unit/ml): 0.016 min⁻¹
- half-life period (t1/2) ([7]; FIG. 2, 37° C., 0.008 unit/ml): 0.717 h
- Degradation in 0 min ([7]; 37° C., 0.008 unit/ml): 0%
- Degradation in 25 min ([7]; 37° C., 0.008 unit/ml): 23%
- half-life period compared with that of βSrU12 (in words) ([7]; degradation by the 5' end): substantially greater

Substance: βSrU12: homododecamer 4'-thio-β-D-ribonucleotide (βrSU12)
- self-hybridization (in words) [8]: does not self-pair; also recorded: no self-hybridization
- Melting temperature (Tm) ([5]; 0.1M NaCl): 33 °C
- hypochromicity ([5]; 0.1M NaCl): 25%
- Melting temperature (Tm) ([5]; 1M NaCl): 46 °C
- hypochromicity ([5]; 1M NaCl): 25%
- thermal stability with complementary RNA (in words) [5]: good thermal stability
- Melting temperature (Tm) [6, 9]: 5 °C
- hypochromicity [6, 9]: 5.6%
- Melting temperature (Tm) [6, 10]: 27 °C
- hypochromicity [6, 10]: 9.3%

Substance: βdT5 (SrT)dT6: dodecamer βdT5 (SrT) dT6
- difference in Tm (modified duplex lower than natural duplex) ([6]; 1M NaCl, 10 μM, versus βdT12/βdC2 A12 C2): 5 °C
- Melting temperature (Tm) [6, 11]: 40 °C
- hypochromicity [6, 11]: 18%

Substance: βdT12: oxygenated natural homolog βdT12 [reference compound]
- half-life period (t1/2) ([7]; FIG. 2, 37° C., 0.008 unit/ml): 0.017 h
- Degradation in 0 min ([7]; 37° C., 0.008 unit/ml): 0%
- Degradation in 25 min ([7]; 37° C., 0.008 unit/ml): 93%
- Melting temperature (Tm) [6, 11]: 45 °C
- hypochromicity [6, 11]: 20.5%
